Measurements reported in US20250288573A1 (H. LEE MOFFITT CANCER CENTER AND RESEARCH INSTITUTE, INC., priority 2018, published 2025).
Like-named read-outs stand apart in the source and are kept apart here.

Target: T1, CRBN (Homo sapiens, UniProt Q96SW2)
T1 construct: endogenous in cells; host or cells: primary human T cells / CD8+ T cells from peripheral blood
Test: Western blot for expression of CRBN relative to vinculin in human T cells (CRBN degradation)
Type: cell-based
Details: for remaining activity at 10 µM / remaining activity at 0.01 µM: read-out: Relative Density of CRBN (% of DMSO); for remaining activity at 0.01 µM: 24 h; for CRBN Degradation ** (WB): grade (+) to (++++) or words, key not given
Text: Bortez=bortezomib; MG132=proteasome inhibitor; MLN4924=NEDD8 inhibitor.
This assay is a standard Western blot assay for expression of CRBN relative to vinculin.
[…] 0.1 percent DMSO was used as a vehicle control.

T1 sequence (Q96SW2 whole entry): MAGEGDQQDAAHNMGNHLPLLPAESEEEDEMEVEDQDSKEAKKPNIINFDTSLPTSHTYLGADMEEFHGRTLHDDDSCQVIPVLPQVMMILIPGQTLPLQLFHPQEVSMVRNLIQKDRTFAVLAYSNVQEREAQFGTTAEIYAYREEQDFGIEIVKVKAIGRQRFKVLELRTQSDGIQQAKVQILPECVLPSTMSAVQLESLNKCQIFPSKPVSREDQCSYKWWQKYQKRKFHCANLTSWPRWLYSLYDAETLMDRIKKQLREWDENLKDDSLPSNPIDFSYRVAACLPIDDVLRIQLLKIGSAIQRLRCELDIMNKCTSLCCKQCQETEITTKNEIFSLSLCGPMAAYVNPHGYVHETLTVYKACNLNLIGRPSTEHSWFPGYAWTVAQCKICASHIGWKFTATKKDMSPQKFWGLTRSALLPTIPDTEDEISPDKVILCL

Structure (SMILES) | remaining activity at 10 µM (10uM) [%] | remaining activity at 0.01 µM (10nM, human T cells, 24 hours) [%] | other results
Cc1nc2cccc(NC(=O)Cn3cc(CCCC(=O)Nc4cccc5c4CN(C4CCC(=O)NC4=O)C5=O)nn3)c2c(=O)n1C1CCC(=O)NC1=O (stereo not drawn) [XS01-123, N-(2-(2,6-Dioxopiperidin-3-yl)-1-oxoisoindolin-4-yl)-4-(1-(2-((3-(2,6-dioxopiperidin-3-yl)-2-methyl-4-oxo-3,4-dihydroquinazolin-5-yl)amino)-2-oxoethyl)-1H-1,2,3-triazol-4-yl)butanamide] | 151 | 243 | 
Cc1nc2cccc(CCCOCCOCCCc3cccc4nc(C)n(C5CCC(=O)NC5=O)c(=O)c34)c2c(=O)n1C1CCC(=O)NC1=O (stereo not drawn) [MA10-120, 3,3′-(((Ethane-1,2-diylbis(oxy))bis(propane-3,1-diyl))bis(2-methyl-4-oxoquinazoline-5,3(4H)-diyl))bis(piperidine-2,6-dione)] |  |  | remaining activity at 0.01 µM: 56.7%; remaining activity at 10 µM: 82.8%
Cc1nc2cccc(NC(=O)CCCCCC(=O)Nc3cccc4nc(C)n(C5CCC(=O)NC5=O)c(=O)c34)c2c(=O)n1C1CCC(=O)NC1=O (stereo not drawn) [MA10-121, N1,N7-bis(3-(2,6-Dioxopiperidin-3-yl)-2-methyl-4-oxo-3,4-dihydroquinazolin-5-yl)heptanediamide] | 72.6 | 56.5 | 
Cc1sc2c(c1C)C(c1ccc(Cl)cc1)=N[C@@H](CC(=O)NCCCCC(=O)Nc1cccc(C(=O)NC3CCC(=O)NC3=O)c1)c1nnc(C)n1-2 (stereo partly drawn) [EC2-088] |  |  | CRBN Degradation (WB)/ IC50/DC50 Relative Density of CRBN (% of DMSO): value without qualifier (no concentration or unit printed): 43.73 ± 24.45 (1/25/19)
Cc1nc2c(NC(=O)c3ccc(C(=O)Nc4cccc5c(=O)n(C6CCC(=O)NC6=O)c(C)nc45)cc3)cccc2c(=O)n1C1CCC(=O)NC1=O (stereo not drawn) [XS01-059] | 356 | 69.2 | CRBN Degradation ** (WB): No Degradation
O=C1CCC(N2C(=O)c3cccc(NC(=O)CCc4cn(CC(=O)Nc5cccc6c5C(=O)N(C5CCC(=O)NC5=O)C6=O)nn4)c3C2=O)C(=O)N1 (stereo not drawn) [XS01-126, N-(2-(2,6-Dioxopiperidin-3-yl)-1,3-dioxoisoindolin-4-yl)-3-(1-(2-((2-(2,6-dioxopiperidin-3-yl)-1,3-dioxoisoindolin-4-yl)amino)-2-oxoethyl)-1H-1,2,3-triazol-4-yl)propanamide] | 131 | 207 | 
Cc1nc2c(NCc3ccc(CNc4cccc5c(=O)n(C6CCC(=O)NC6=O)c(C)nc45)cc3)cccc2c(=O)n1C1CCC(=O)NC1=O (stereo not drawn) [XS01-030, 3,3′-(((1,4-Phenylenebis(methylene))bis(azanediyl))bis(2-methyl-4-oxoquinazoline-8,3(4H)-diyl))bis(piperidine-2,6-dione)] | 93 | 12.1 | 
O=C1CCC(NC(=O)c2cccc(NC(=O)CCCCCCC(=O)Nc3cccc(C(=O)NC4CCC(=O)NC4=O)c3)c2)C(=O)N1 (stereo not drawn) [XS01-050, N^1,N^8-Bis(3-((2,6-dioxopiperidin-3-yl)carbamoyl)phenyl)octanedimide] | 20 | 168 | 
O=C1CCC(NC(=O)c2cccc(NC(=O)CCCCCCCCC(=O)Nc3cccc(C(=O)NC4CCC(=O)NC4=O)c3)c2)C(=O)N1 (stereo not drawn) [XS01-075, N^1,N^10-Bis(3-((2,6-dioxopiperidin-3-yl)carbamoyl)phenyl)decanediamide] | 63.4 |  | 
Cc1nc2cccc(CCc3ccc(CCc4cccc5nc(C)n(C6CCC(=O)NC6=O)c(=O)c45)cc3)c2c(=O)n1C1CCC(=O)NC1=O (stereo not drawn) [XS01-038, 3,3′-((1,4-Phenylenebis(ethane-2,1-diyl))bis(2-methyl-4-oxoquinazoline-5,3(4H)-diyl))bis(piperidine-2,6-dione)] | 133 | 29 | CRBN Degradation ** (WB): No degradation
Cc1nc2cccc(NC(=O)CCCCCCCC(=O)Nc3cccc4nc(C)n(C5CCC(=O)NC5=O)c(=O)c34)c2c(=O)n1C1CCC(=O)NC1=O (stereo not drawn) [MA10-086, N1,N9-bis(3-(2,6-Dioxopiperidin-3-yl)-2-methyl-4-oxo-3,4-dihydroquinazolin-5-yl)nonanediamide] | 71 | 138 | 
Cc1nc2cccc(NC(=O)CCc3cn(CC(=O)Nc4cccc5nc(C)n(C6CCC(=O)NC6=O)c(=O)c45)nn3)c2c(=O)n1C1CCC(=O)NC1=O (stereo not drawn) [XS01-132, N-(3-(2,6-dioxopiperidin-3-yl)-2-methyl-4-oxo-3,4-dihydroquinazolin-5-yl)-3-(1-(2-((3-(2,6-dioxopiperidin-3-yl)-2-methyl-4-oxo-3,4-dihydroquinazolin-5-yl)amino)-2-oxoethyl)-1H-1,2,3-triazol-4-yl)propanamide] | 98.3 | 199 | 
O=C1CCC(N2Cc3c(NC(=O)CCc4cn(CC(=O)Nc5cccc6c5C(=O)N(C5CCC(=O)NC5=O)C6=O)nn4)cccc3C2=O)C(=O)N1 (stereo not drawn) [XS01-125, 3-(1-(2-((2-(2,6-Dioxopiperidin-3-yl)-1,3-dioxoisoindolin-4-yl)amino)-2-oxoethyl)-1H-1,2,3-triazol-4-yl)-N-(2-(2,6-dioxopiperidin-3-yl)-1-oxoisoindolin-4-yl)propanamide] | 153 | 196 | 

The next lines start with results.

remaining activity at 10 µM (10uM) [%] | remaining activity at 0.01 µM (10nM, human T cells, 24 hours) [%] | Structure (SMILES) | other results
9.84 | 97.5 | O=C1CCC(N2Cc3c(CCCCCC(=O)Nc4cccc5c4CN(C4CCC(=O)NC4=O)C5=O)cccc3C2=O)C(=O)N1 (stereo not drawn) [EC2-109, N,6-bis(2-(2,6-Dioxopiperidin-3-yl)-1-oxoisoindolin-4-yl)hexanamide] | 
40.3 | 48.4 | O=C1CCC(N2Cc3ccc(NC(=O)CCCC(=O)Nc4ccc5c(c4)C(=O)N(C4CCC(=O)NC4=O)C5)cc3C2=O)C(=O)N1 (stereo not drawn) [EC2-060, N^1,N^5-bis(2-(2,6-Dioxopiperidin-3-yl)-3-oxoisoindolin-5-yl)glutaramide] | CRBN Degradation ** (WB): No degradation
25.2 | 58.9 | O=C1CCC(N2Cc3c(CCCCCCCCCC(=O)Nc4cccc5c4CN(C4CCC(=O)NC4=O)C5=O)cccc3C2=O)C(=O)N1 (stereo not drawn) [EC2-102, N,10-bis(2-(2,6-Dioxopiperidin-3-yl)-1-oxoisoindolin-4-yl)decanamide] | 
79.7 | 85.6 | O=C1CCC(N2Cc3c(C#CCCCC(=O)Nc4cccc5c4CN(C4CCC(=O)NC4=O)C5=O)cccc3C2=O)C(=O)N1 (stereo not drawn) [EC2-108, N,6-bis(2-(2,6-Dioxopiperidin-3-yl)-1-oxoisoindolin-4-yl)hex-5-ynamide] | 
151 | 255 | O=C1CCC(N2Cc3c(NC(=O)CCCc4cn(CC(=O)Nc5cccc6c5C(=O)N(C5CCC(=O)NC5=O)C6=O)nn4)cccc3C2=O)C(=O)N1 (stereo not drawn) [XS01-122, 4-(1-(2-((2-(2,6-Dioxopiperidin-3-yl)-1,3-dioxoisoindolin-4-yl)amino)-2-oxoethyl)-1H-1,2,3-triazol-4-yl)-N-(2-(2,6-dioxopiperidin-3-yl)-1-oxoisoindolin-4-yl)butanamide] | 
32.2 | 55.5 | O=C1CCC(N2Cc3c(C#CCCCCCCCC(=O)Nc4cccc5c4CN(C4CCC(=O)NC4=O)C5=O)cccc3C2=O)C(=O)N1 (stereo not drawn) [EC2-100, N,10-bis(2-(2,6-Dioxopiperidin-3-yl)-1-oxoisoindolin-4-yl)dec-9-ynamide] | 
